In patent publication US6355799B1, “Substituted benzene compounds, process for their preparation, and herbicidal and defoliant compositions containing them” (ISK Americas Incorporated, priority 1997, dated 2002):

How the values were obtained:
Format in all cases: in vivo
[1] = test system: redroot pigweed (Amaranthus retroflexus, AMARE); assay: Pre-emerge test, greenhouse herbicide activity screening; conditions: phytotoxicity rating 0-100, 14 days after application
How it was run: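 Compounds in acetone were track-sprayed at 187 l/ha, 15–1000 g ai/ha, onto sandy loam pots. Pre-emerge seeds were sown one day before spraying, with surface watering afterwards. Post-emerge plants were at the 2–3 leaf stage and sprayed with 0.25% v/v non-ionic surfactant. Injury was rated 0–100 at 14 days.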

[2] = test system: upland rice (Oryza sp., var. Tebonnet, RICE); assay: Pre-emerge test, crop safety; conditions: crop damage rating 0-100, 14 days after application
How it was run: (§1)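 Sandy loam pots; pre-emerge: sown 1 d pre-spray, surface-watered after, then bottom-watered. Post-emerge: sown 8–21 d before, 2–3 leaf stage, + 0.25% v/v NIS, bottom-watered. Acetone, 187 l/ha track spray, 15–1000 g ai/ha. 0–100 injury score, day 14.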

[3] = test system: field corn (Zea mays L., var. Dekalb 535, CORN); assay: Pre-emerge test, crop safety; conditions: crop damage rating 0-100, 14 days after application
How it was run: as §1

[4] = test system: large crabgrass (Digitaria sanguinalis, DIGSA); assay: Pre-emerge test, greenhouse herbicide activity screening; conditions: phytotoxicity rating 0-100, 14 days after application
Description: (§2) A standard greenhouse herbicide activity screening system was used to evaluate the herbicidal efficacy and crop safety of these test compounds. Seven broadleaf weed species including redroot pigweed (Amaranthus retroflexus, AMARE, velvetleaf (Abutilon theophrasti, ABUTH), sicklepod (Cassia obtusifolia, CASOB), ivyleaf morningglory (Ipomoea hederacea, IPOHE), lambsquarters (Chenopodium album, CHEAL), common ragweed (Ambrosia artemisizfolia L., AMBEL), and cocklebur (Xanthium strumarium, XANST) were used as test species. Four grass weed species including green foxtail (Setaria viridis, SETVI), barnyardgrass (Echinochloa crus-galli, ECHCG), johnsongrass (Sorghum halepense, SORHA), and large crabgrass (Digitaria sanguinalis, DIGSA) were also used. In addition, three crop species, field corn (Zea mays L., var. Dekalb 535, CORN), soybean (Glycine max L., var. Pella 86, SOY), and is upland rice (Oryza sp., var. Tebonnet, RICE) were included.
(§3) All plants were grown in 10 cm square plastic pots which were filled with a sandy loam soil mix. For pre-emerge tests, seeds were planted one day prior to application of the test compounds. For post-emerge tests, seeds were planted 8-21 days prior to the test to allow emergence and good foliage development prior to application of the test substances. At the time of the post-emerge application, plants of all species were usually at the 2-3 leaf stage of development.
(§4) All test compounds Were dissolved in acetone and applied to the test units in a volume of 187 l /ha. Test materials were applied at rates ranging from 15 g ai/ha to 1000 g ai/ha using a track sprayer equipped with a TJ8001E even flow flat fan spray nozzle. Plants were arranged on a shelf so that the top of the canopy (post-emerge) or top of the soil surface (pre-emerge) was 40-45 cm below the nozzle. Pressurized air was used to force the test solution through the nozzle as it was mechanically advanced (via electrically driven chain drive) over the top of all test plants/pots. This application simulates a typical commercial field herbicide application.
(§5) In the post-emerge test, a commercial non-ionic surfactant was also included (0.25% v/v) to enhance wetting of the leaf surfaces of target plants. Immediately after application, test units of the pre-emerge applications were watered at the soil surface to incorporate the test materials. Subsequently, these test units were bottom-watered. Post-emerge test units were always bottom-watered.
(§6) At 14 days after application of the test materials, phytotoxicity ratings were recorded. A rating scale of 0-100 was used as previously described in Research Methods in Weed Science, 2nd edition, B. Truelove, Ed., Southern Weed Science Society, Auburn University, Auburn, Ala. 1977. Briefly, “0” corresponds to no damage and “100” corresponds to complete death of all plants in the test unit. This scale was used both to determine efficacy against weed species and damage to crop species. Herbicide activity data for various compounds of this invention, which are shown by compound No. in Tables 1-8, are shown in Tables 11 and 12.

[5] = test system: velvetleaf (Abutilon theophrasti, ABUTH); assay: as above; conditions: phytotoxicity rating 0-100, 14 days after application
Description: as §2, §3, §4, §5, §6

[6] = test system: green foxtail (Setaria viridis, SETVI); assay: as above; conditions: phytotoxicity rating 0-100, 14 days after application
Description: as §2, §3, §4, §5, §6

[7] = test system: barnyardgrass (Echinochloa crus-galli, ECHCG); assay: as above; conditions: phytotoxicity rating 0-100, 14 days after application
Description: as §2, §3, §4, §5, §6

[8] = test system: ivyleaf morningglory (Ipomoea hederacea, IPOHE); assay: as above; conditions: phytotoxicity rating 0-100, 14 days after application
Description: as §2, §3, §4, §5, §6

[9] = test system: sicklepod (Cassia obtusifolia, CASOB); assay: as above; conditions: phytotoxicity rating 0-100, 14 days after application
Description: as §2, §3, §4, §5, §6

[10] = test system: lambsquarters (Chenopodium album, CHEAL); assay: as above; conditions: phytotoxicity rating 0-100, 14 days after application
Description: as §2, §3, §4, §5, §6

[11] = test system: upland rice (Oryza sp., var. Tebonnet, RICE); assay: Post-emerge test, crop safety; conditions: post-emerge, 14 days after application, rating scale 0-100
How it was run: (§7)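 Applied at 15–1000 g ai/ha from acetone in 187 l/ha spray volume. Post-emergence applications included 0.25% v/v non-ionic surfactant and reached plants sown 8–21 days before. Pre-emergence applications were incorporated by surface watering. Efficacy or crop damage was rated on a 0–100 scale after 14 days.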

[12] = test system: field corn (Zea mays L., var. Dekalb 535, CORN); assay: Post-emerge test, crop safety; conditions: post-emerge, 14 days after application, rating scale 0-100
How it was run: as §7

[13] = test system: large crabgrass (Digitaria sanguinalis, DIGSA); assay: Post-emerge test, greenhouse herbicide activity screening; conditions: post-emerge, 14 days after application, rating scale 0-100
Description: as §2, §3, §4, §5, §6

[14] = test system: velvetleaf (Abutilon theophrasti, ABUTH); assay: as above; conditions: post-emerge, 14 days after application, rating scale 0-100
Description: as §2, §3, §4, §5, §6

[15] = test system: green foxtail (Setaria viridis, SETVI); assay: as above; conditions: post-emerge, 14 days after application, rating scale 0-100
Description: as §2, §3, §4, §5, §6

[16] = test system: barnyardgrass (Echinochloa crus-galli, ECHCG); assay: as above; conditions: post-emerge, 14 days after application, rating scale 0-100
Description: as §2, §3, §4, §5, §6

[17] = test system: ivyleaf morningglory (Ipomoea hederacea, IPOHE); assay: as above; conditions: post-emerge, 14 days after application, rating scale 0-100
Description: as §2, §3, §4, §5, §6

[18] = test system: sicklepod (Cassia obtusifolia, CASOB); assay: as above; conditions: post-emerge, 14 days after application, rating scale 0-100
Description: as §2, §3, §4, §5, §6

[19] = test system: redroot pigweed (Amaranthus retroflexus, AMARE); assay: as above; conditions: post-emerge, 14 days after application
Description: as §2, §3, §4, §5, §6

[20] = test system: lambsquarters (Chenopodium album, CHEAL); assay: as above; conditions: post-emerge, 14 days after application, rating scale 0-100
Description: as §2, §3, §4, §5, §6

COc1c(Cl)cc(F)c(-n2c(=O)cc(C(F)(F)F)n(C)c2=O)c1NC(=O)OCc1ccc(C(F)(F)F)cc1 [4-43]
0: Pre-emerge Herbicidal Activity RICE ([2]; 63 g ai/ha) | Pre-emerge Herbicidal Activity CORN ([3]; 63 g ai/ha) | Pre-emerge Herbicidal Activity CORN ([3]; 250 g ai/ha) | Pre-emerge Herbicidal Activity DIGSA ([4]; 63 g ai/ha) | Pre-emerge Herbicidal Activity SETVI ([6]; 63 g ai/ha) | Pre-emerge Herbicidal Activity ECHCG ([7]; 63 g ai/ha) | Pre-emerge Herbicidal Activity IPOHE ([8]; 63 g ai/ha) | Pre-emerge Herbicidal Activity CASOB ([9]; 63 g ai/ha) | phytotoxicity rating RICE (crop damage) ([11]; 63 g ai/ha) | phytotoxicity rating RICE (crop damage) ([11]; 250 g ai/ha) | phytotoxicity rating CORN (crop damage) ([12]; 63 g ai/ha) | phytotoxicity rating DIGSA ([13]; 63 g ai/ha) | phytotoxicity rating DIGSA ([13]; 250 g ai/ha) | phytotoxicity rating SETVI ([15]; 63 g ai/ha) | phytotoxicity rating ECHCG ([16]; 63 g ai/ha)
50: Pre-emerge Herbicidal Activity ABUTH ([5]; 250 g ai/ha) | phytotoxicity rating CASOB ([18]; 63 g ai/ha)
90: phytotoxicity rating CHEAL ([20]; 250 g ai/ha)
10: Pre-emerge Herbicidal Activity AMARE ([1]; 63 g ai/ha) | Pre-emerge Herbicidal Activity RICE ([2]; 250 g ai/ha) | Pre-emerge Herbicidal Activity ECHCG ([7]; 250 g ai/ha) | Pre-emerge Herbicidal Activity IPOHE ([8]; 250 g ai/ha) | phytotoxicity rating CORN (crop damage) ([12]; 250 g ai/ha) | phytotoxicity rating ECHCG ([16]; 250 g ai/ha)
60: Pre-emerge Herbicidal Activity AMARE ([1]; 250 g ai/ha) | Pre-emerge Herbicidal Activity DIGSA ([4]; 250 g ai/ha) | phytotoxicity rating ABUTH ([14]; 63 g ai/ha) | phytotoxicity rating CASOB ([18]; 250 g ai/ha)
20: Pre-emerge Herbicidal Activity ABUTH ([5]; 63 g ai/ha)
30: Pre-emerge Herbicidal Activity CHEAL ([10]; 63 g ai/ha)
40: Pre-emerge Herbicidal Activity CASOB ([9]; 250 g ai/ha) | phytotoxicity rating SETVI ([15]; 250 g ai/ha) | phytotoxicity rating IPOHE ([17]; 63 g ai/ha) | phytotoxicity rating IPOHE ([17]; 250 g ai/ha)
80: Pre-emerge Herbicidal Activity CHEAL ([10]; 250 g ai/ha) | phytotoxicity rating CHEAL ([20]; 63 g ai/ha)
100: phytotoxicity rating ABUTH ([14]; 250 g ai/ha) | phytotoxicity rating AMARE ([19]; 250 g ai/ha, rating scale 0-100)
70: Pre-emerge Herbicidal Activity SETVI ([6]; 250 g ai/ha) | phytotoxicity rating AMARE ([19]; 63 g ai/ha, rating scale 0-100 (0 no damage, 100 complete death))
